Assay: Human HepG2 cell viability assay in 384 well format
Assay type: toxicity, cell-based
Parameters: dose 125 nL, time 70.5 hour; concentration not given beside the values
Conditions: HepG2 cells, read-out: Inhibition

## Cn1cc(CNC(=O)C2CCCN(Cc3cccc(F)c3)C2)cn1 (centres undefined)
  cytotoxicity at 70.5 h: -11.1%

## O=C1N(CC2CC2)C(c2c[nH]nc2-c2cccnc2)NC12CCCC2 (centres undefined)
  cytotoxicity at 70.5 h: -12.7%

## CCN(Cc1nnnn1C1CC1)c1cc(C)ccc1C
  cytotoxicity at 70.5 h: -2.4%

## CCc1nc(CN2CCC(C(=O)N(C)C)CC2)cs1
  cytotoxicity at 70.5 h: 0.679%

## CC(NCc1ccc(C(C)(C)C)cc1)c1ccc(S(C)(=O)=O)cc1 (centres undefined)
  cytotoxicity at 70.5 h: -8.09%

## CC(NCc1ccc(F)cc1)c1ccc(S(C)(=O)=O)cc1 (centres undefined)
  cytotoxicity at 70.5 h: -7.76%

## CCC(NCc1ccccc1)c1ccccc1OCC(=O)NC (centres undefined)
  cytotoxicity at 70.5 h: -6.53%

## CCC(NCc1cccc(Cl)c1)c1ccccc1OCC(=O)NC (centres undefined)
  cytotoxicity at 70.5 h: -1.52%

## CN(Cc1ccc(Cl)s1)C(=O)Nc1ccc(N(C)C)nc1
  cytotoxicity at 70.5 h: -11.5%

## Cc1cccc(CN2CCN(C(=O)c3cccnc3O)CC2)c1
  cytotoxicity at 70.5 h: -4.88%

## Cc1ccc(CCNC(=O)NCCCC(N)=O)c(C)c1
  cytotoxicity at 70.5 h: 1.66%

## Cc1cccc(CN2CCN(C(=O)c3ccc(C)[nH]c3=O)CC2)c1
  cytotoxicity at 70.5 h: -7.34%

## CCN(CC)C(=O)c1ccc(CNc2ncc(C#N)cc2Cl)cc1
  cytotoxicity at 70.5 h: -7.7%

## N#Cc1ccc(CNc2ncc(C#N)cc2Cl)cc1
  cytotoxicity at 70.5 h: 0.2%

## O=C1C(Sc2nc(=O)ccn2C2CC2)CCN1c1ccccc1F (centres undefined)
  cytotoxicity at 70.5 h: 2.14%

## c1n[nH]cc1CCCN1CCC(OC2CCCCC2)CC1
  cytotoxicity at 70.5 h: 0.00847%

## COCCCC(=O)N1CC(=O)Nc2cc(Br)ccc21
  cytotoxicity at 70.5 h: -3.54%

## Cc1nc(NC(=O)COCC(F)(F)F)ccc1Br
  cytotoxicity at 70.5 h: 1.69%

## CCC(CNS(C)(=O)=O)Oc1ccccc1C (centres undefined)
  cytotoxicity at 70.5 h: -3.25%

## Cn1cc(CNCCNC(=O)Cc2ccccc2)c(-c2cccnc2)n1
  cytotoxicity at 70.5 h: -5.62%

## Cn1cc(CNCCc2cccnc2)c(-c2cccnc2)n1
  cytotoxicity at 70.5 h: 22.8%

## CNC(=O)CCc1cccc(OC2CCCC2)c1
  cytotoxicity at 70.5 h: -12.2%

## CCN(C(=O)CN1CCC(c2ccccc2)C1)C1CC1 (centres undefined)
  cytotoxicity at 70.5 h: 0.241%

## O=C1CCCN1c1cccc(CNCc2cc(F)ccc2F)c1
  cytotoxicity at 70.5 h: -6.99%

## CCC(C)c1cc(C(=O)N(CC(=O)NC)c2cccc(F)c2)on1 (centres undefined)
  cytotoxicity at 70.5 h: 20.8%

## CSc1ncccc1C(=O)NCC(c1ccco1)N(C)C (centres undefined)
  cytotoxicity at 70.5 h: 4.37%

## Cc1cc(C(=O)CN2CCN(c3nccs3)CC2)c(C)n1C1CC1
  cytotoxicity at 70.5 h: -10.5%

## O=C(c1ccc(Sc2ccccn2)cc1)N1CCCSCC1
  cytotoxicity at 70.5 h: -10.8%

## COc1ccc(OC)c(-n2nnnc2SCC2CCCCO2)c1 (centres undefined)
  cytotoxicity at 70.5 h: -6.66%

## Cc1cc(C)n(C2CN(c3ncnc4c3CCC4)C2)n1
  cytotoxicity at 70.5 h: -10.3%

## Cc1noc(CNC(=O)C(C)(C)NC(=O)OC(C)(C)C)n1
  cytotoxicity at 70.5 h: 18.7%

## Cc1cc(NCc2cccc(C#N)c2)ccc1C(N)=O
  cytotoxicity at 70.5 h: 2.79%

## CCc1cccc(NC(=O)CNc2ccccc2OCCC(=O)OC)c1
  cytotoxicity at 70.5 h: -0.0313%

## CC(Cn1cncn1)NC(=O)NCc1csc(N(C)C)n1 (centres undefined)
  cytotoxicity at 70.5 h: -8.98%

## CNC(=O)CN(C(=O)c1cc(C(C)C)no1)c1cccc(F)c1
  cytotoxicity at 70.5 h: 27.9%

## CCC1CCCN(S(=O)(=O)c2cnc3onc(C)c3c2)C1 (centres undefined)
  cytotoxicity at 70.5 h: -4.44%

## CCN1CCCN(S(=O)(=O)c2cnc3onc(C)c3c2)CC1
  cytotoxicity at 70.5 h: -7.12%

## CC(C)(CCS(C)(=O)=O)CNC(=O)NC1CCCCC1(C)C (centres undefined)
  cytotoxicity at 70.5 h: 28%

## CC(C)(CCS(C)(=O)=O)CNC(=O)NC1CCCC1(C)C (centres undefined)
  cytotoxicity at 70.5 h: -6.64%

## CS(=O)(=O)CCCNCc1c(Cl)cccc1N1CCCC1
  cytotoxicity at 70.5 h: -10.5%

## Cc1cc(NCc2cccc(C#N)c2)ccc1Br
  cytotoxicity at 70.5 h: -7.27%

## Cc1cc(NCc2cccc(C#N)c2)ccc1C(=O)N(C)C
  cytotoxicity at 70.5 h: -9.77%

## CC(C)N(Cc1ccc(Cl)c(Cl)c1)C(=O)CCn1cncn1
  cytotoxicity at 70.5 h: -2.22%

## O=C(c1cnccn1)N(CCO)Cc1cc(Br)ccc1F
  cytotoxicity at 70.5 h: -5.51%

## CN1CCC(C)(CNC(=O)c2ccc(SCc3cccnc3)cc2)CC1
  cytotoxicity at 70.5 h: -9.14%

## CN1CCN(c2cccc(Cl)c2CNCCS(C)(=O)=O)CC1
  cytotoxicity at 70.5 h: -8.06%

## NC(=O)CCNCc1c(Cl)cccc1N1CCCC1
  cytotoxicity at 70.5 h: -6.13%

## Cc1ccc(CNC(=O)CCN2CCN(c3ccccn3)CC2)n1C
  cytotoxicity at 70.5 h: 21.9%

## COCCNC(C)c1ccc(-c2cccnc2)cc1 (centres undefined)
  cytotoxicity at 70.5 h: 0.821%

## CN(C(=O)NCCCNc1ccccn1)C1CCS(=O)(=O)C1 (centres undefined)
  cytotoxicity at 70.5 h: -10.6%

## O=C(NCC1CCS(=O)(=O)C1)Nc1ccccn1 (centres undefined)
  cytotoxicity at 70.5 h: 3.81%

## O=C(Nc1ccc2c(c1)OC1(CCCCC1)O2)c1ccc(=O)[nH]n1
  cytotoxicity at 70.5 h: 0.889%

## CC1CN(c2ccc(CNC(=O)NCCO)cn2)CCO1 (centres undefined)
  cytotoxicity at 70.5 h: -8.22%

## N#Cc1cc(F)c(NCCc2ccc(F)cc2)c(F)c1
  cytotoxicity at 70.5 h: -2.9%

## CN(C)c1ncc(CNC(=O)Nc2ccc(C(F)(F)F)cc2)n1C
  cytotoxicity at 70.5 h: -2.76%

## N#Cc1cc(F)c(NCCc2cccnc2)c(F)c1
  cytotoxicity at 70.5 h: -4.91%

## CC(C)(C)C(=O)c1ccsc1NC(=O)CCNC(=O)c1ccco1
  cytotoxicity at 70.5 h: -5.13%

## CN(C)C(C(=O)Nc1nccs1)c1c(F)cccc1Cl (centres undefined)
  cytotoxicity at 70.5 h: -0.246%

## Cc1nn(C)c(Cl)c1CNCc1cccnc1N1CCCCC1
  cytotoxicity at 70.5 h: -2.26%
